± gives the expanded uncertainty stated by the source.
Assay: xn = mol fraction of the nth substance listed
Conditions: 101 kPa, Liquid, Vibrating tube method

OCc1ccccn1 [α-picolyl alcohol] + O
mass density [kg/m3]
Conditions	293.15 K	298.15 K	303.15 K	308.15 K	313.15 K	318.15 K
x1 = 0.05	1033.4 ± 1	1031.7 ± 1	1029.2 ± 1	1027.6 ± 1	1024.4 ± 1	1021.6 ± 1
x1 = 0.15	1077.3 ± 1	1074.4 ± 1	1071 ± 1	1067.6 ± 1	1064.5 ± 1	1061.1 ± 1
x1 = 0.2	1088.5 ± 1	1085 ± 1	1080.9 ± 1	1076.8 ± 1	1073.1 ± 1	1069.3 ± 1
x1 = 0.25	1098.1 ± 1	1094 ± 1	1089.6 ± 1	1085.5 ± 1	1081.6 ± 1	1077.8 ± 1
x1 = 0.3	1106.3 ± 1	1102.9 ± 1	1098.9 ± 1	1095.1 ± 1	1091.5 ± 1	1087.9 ± 1
x1 = 0.35	1112 ± 1	1107.9 ± 1.1	1103.4 ± 1	1099.3 ± 1	1095.4 ± 1	1091.4 ± 1
x1 = 0.4	1116 ± 1.1	1111.7 ± 1.1	1106.7 ± 1.1	1102.3 ± 1.1	1098.2 ± 1.1	1094.5 ± 1.1
x1 = 0.45	1119.8 ± 1.1	1116.2 ± 1.1	1111.9 ± 1.1	1107.4 ± 1.1	1103.6 ± 1.1	1099.8 ± 1.1
x1 = 0.5	1122.4 ± 1.2	1118.9 ± 1.2	1114.7 ± 1.2	1110.8 ± 1.2	1107 ± 1.2	1103.2 ± 1.2
x1 = 0.55	1124.4 ± 1.2	1120.7 ± 1.2	1116.3 ± 1.2	1112.2 ± 1.2	1108.3 ± 1.2	1104.5 ± 1.2
x1 = 0.6	1125.7 ± 1.3	1122.1 ± 1.3	1117.9 ± 1.3	1113.9 ± 1.3	1110 ± 1.3	1106.3 ± 1.3
x1 = 0.65	1127.5 ± 1.4	1123.9 ± 1.4	1119.8 ± 1.4	1115.9 ± 1.4	1112.1 ± 1.4	1108.4 ± 1.4
x1 = 0.7	1128.4 ± 1.5	1124.8 ± 1.5	1120.7 ± 1.5	1116.9 ± 1.5	1113.1 ± 1.5	1109.5 ± 1.5
x1 = 0.75	1129.3 ± 1.6	1125.8 ± 1.6	1121.7 ± 1.6	1117.7 ± 1.6	1114.1 ± 1.6	1110.4 ± 1.6
x1 = 0.8	1130.2 ± 1.8	1126.7 ± 1.7	1122.6 ± 1.7	1118.7 ± 1.7	1115 ± 1.7	1111.2 ± 1.7
x1 = 0.9	1131.5 ± 2.1	1127.9 ± 2.1	1123.9 ± 2.1	1119.8 ± 2	1116.1 ± 2	1112.4 ± 2
x1 = 0.95	1131.9 ± 2.3	1128.3 ± 2.2	1124.3 ± 2.2	1120.3 ± 2.2	1116.6 ± 2.2	1112.9 ± 2.2
x1 = 1	1132.3 ± 2.5	1128.8 ± 2.4	1124.7 ± 2.4	1120.7 ± 2.4	1116.9 ± 2.4	1113.3 ± 2.4

OCc1cccnc1 [β-picolyl alcohol] + O
mass density [kg/m3]
Conditions	293.15 K	298.15 K	303.15 K	308.15 K	313.15 K	318.15 K
x1 = 0.05	1032.8 ± 0.2	1031.1 ± 0.2	1028.7 ± 0.2	1026.3 ± 0.2	1024.1 ± 0.2	1021.8 ± 0.2
x1 = 0.1	1056.5 ± 0.2	1054 ± 0.2	1051.1 ± 0.2	1048.2 ± 0.2	1045.5 ± 0.2	1042.8 ± 0.2
x1 = 0.15	1074.5 ± 0.2	1071.9 ± 0.2	1068.7 ± 0.2	1065.5 ± 0.2	1062.5 ± 0.2	1059.5 ± 0.2
x1 = 0.2	1089.7 ± 0.2	1086.6 ± 0.2	1083.2 ± 0.2	1079.8 ± 0.2	1076.6 ± 0.2	1073.3 ± 0.2
x1 = 0.25	1098 ± 1	1095 ± 0.3	1091.4 ± 0.3	1088 ± 1	1084.7 ± 0.3	1081.4 ± 0.3
x1 = 0.3	1106.6 ± 0.3	1103.4 ± 0.3	1099.7 ± 0.3	1096.2 ± 0.3	1092.8 ± 0.3	1089.5 ± 0.3
x1 = 0.35	1111.4 ± 0.4	1108.1 ± 0.4	1104.4 ± 0.4	1100.8 ± 0.4	1097.4 ± 0.4	1094 ± 1
x1 = 0.4	1117 ± 1	1113.7 ± 0.5	1109.9 ± 0.5	1106.3 ± 0.5	1103 ± 1	1099.4 ± 0.5
x1 = 0.45	1120.5 ± 0.6	1117.2 ± 0.6	1113.5 ± 0.6	1109.7 ± 0.6	1106.4 ± 0.6	1102.9 ± 0.6
x1 = 0.5	1123.5 ± 0.7	1120.3 ± 0.7	1116.5 ± 0.7	1112.8 ± 0.7	1109.4 ± 0.7	1106 ± 0.7
x1 = 0.55	1125.9 ± 0.9	1122.4 ± 0.8	1118.6 ± 0.8	1114.9 ± 0.8	1111.6 ± 0.8	1108.2 ± 0.8
x1 = 0.6	1128 ± 1	1124.7 ± 1	1120.8 ± 1	1117.3 ± 1	1113.8 ± 1	1110.4 ± 1
x1 = 0.65	1129.7 ± 1.1	1126.4 ± 1.1	1122.5 ± 1.1	1118.9 ± 1.1	1115.5 ± 1.1	1112.1 ± 1.1
x1 = 0.7	1131.1 ± 1.3	1127.8 ± 1.3	1123.9 ± 1.3	1120.3 ± 1.3	1116.9 ± 1.3	1113.5 ± 1.2
x1 = 0.75	1132.3 ± 1.5	1129 ± 2	1125.2 ± 1.4	1121.6 ± 1.4	1118.1 ± 1.4	1114.7 ± 1.4
x1 = 0.8	1133.5 ± 1.6	1130.1 ± 1.6	1126.3 ± 1.6	1122.7 ± 1.6	1119.3 ± 1.6	1115.9 ± 1.6
x1 = 0.85	1134.5 ± 1.8	1131.2 ± 1.8	1127.4 ± 1.8	1123.7 ± 1.8	1120.3 ± 1.8	1116.9 ± 1.8
x1 = 0.9	1135.2 ± 2	1131.8 ± 2	1128.1 ± 2	1124.5 ± 2	1121.1 ± 2	1117.7 ± 2
x1 = 0.95	1136.1 ± 2.3	1132.7 ± 2.2	1128.9 ± 2.2	1125.3 ± 2.2	1122 ± 2	1118.6 ± 2.2
x1 = 1	1136.8 ± 2.5	1133.5 ± 2.5	1129.6 ± 2.4	1125.9 ± 2.4	1122.6 ± 2.4	1119.3 ± 2.4

Reference: the NIST ThermoML archive (doi:10.1016/j.fluid.2012.10.024)
